We go through 13 molecules from US4558059A, “2-Substituted-phenylthiazole derivatives” (priority 1980, dated 1985).

Series [1] concerns Peptic ulcer due to pyloric ligation. In words: Effect on peptic ulcer due to pyloric ligation. The series is classed as in vivo, male rats. The settings on record: intraperitoneal, rats; for Ulcer coefficient: 100 mg/kg, just after ligation, 15 hours; for inhibition in vivo at 100 mg/kg: Rattus norvegicus, ip, 15 h, control ulcer coefficient 42.0 mm^2, read-out: Rate of suppression of ulcer. The method, then:
Just after subjecting to ligation, each of the present compound suspended in an aqueous physiological saline solution was intraperitoneally administered to each rat, the control being injected with an aqueous physiological saline solution. Then, after 15 hours of fasting without taking water, the rats were sacrificed with ether and their stomachs were removed to examine under a microscope for anatomy. The length and width of the thus-formed ulcer in the stomach were determined and expressed by the product (mm^2), and the total sum of the products was represented as the ulcer coefficient.

The subject of series [2] is Peptic ulcer due to acetic acid. In words: Effect on peptic ulcer due to acetic acid (duodenal). The series is classed as in vivo, male rats. To be noted: for Ulcer coefficient: orally 3 times a day for 10 days from third day; for inhibition in vivo at 100 mg/kg: Rattus norvegicus, po, 240 h, read-out: Rate of suppression of ulcer. As to the method:
To the control group, only the aqueous physiological saline solution was administered. After the administration was over, the rats were sacrificed with ether, and their duodenum was removed to observe under a microscope for anatomy. The length and width of the thus-formed ulcer were measured and their product (expressed with mm^2) was recorded as the ulcer coefficient.

A short description of series [3]: Acute toxicity test, oral. The settings on record: mouse, in vivo, p.o., female ICR-mice, mortality for a week, Litchfield-Wilcoxon. As to the method: Ten animals per group were kept in a transparent polycage at room temperature of 23°±1° C., and RH of 60 to 70%.
After minutely pulverizing each one of the present compounds, the pulverized compound was suspended in an aqueous 5% sodium carboxymethylcellulose solution containing 20% of Tween-80. The aqueous suspension was forcibly orally administered by a metal stomach tube, the dose rate having been adjusted by changing the concentration of the present compound in the aqueous suspension.

The subject of the next series is peptic ulcer. To be noted: cited from earlier work.
Where [4] appears, read: 100 mg/kg, orally 3 times a day for 10 days, rats, control ulcer coefficient 9.0 mm^2.

Like-named read-outs stand apart in the source and are kept apart here.

`CNC(=O)c1sc(-c2cc(OC)c(OC)c(OC)c2)nc1C` [Compound 1, 2-(3,4,5-trimethoxyphenyl)-4-methylthiazole-5-methylcarboxamide]: the Ulcer coefficient in series [1] was found to be 14.7 mm^2; in series [2] (100 mg/kg, rats) it was 3.1 mm^2. Moreover, the inhibition in vivo at 100 mg/kg is 65% in series [1] and 65.6% in series [2] (setting [4]).

Turning to `CCCNC(=O)c1sc(-c2cc(OC)c(OC)c(OC)c2)nc1C` [Compound 2, 2-(3,4,5-trimethoxyphenyl)-4-methylthiazole-5-n-propylcarboxamide], the Ulcer coefficient in series [1] was 6.3 mm^2; in series [2] (100 mg/kg, rats), 2.7 mm^2. For the same molecule, the inhibition in vivo at 100 mg/kg in series [1] came to 85%; in series [2] (setting [4]), 70%. In series [3], the median lethal dose (LD50) (usually the dose at which mortality reaches 50%) at 168 h was 5600 mg/kg.

With `COc1ccc(-c2nc(C)c(C(N)=O)s2)cc1OC` [Compound 3, 2-(3,4-dimethoxyphenyl)-4-methylthiazole-5-carboxamide], the Ulcer coefficient in series [1] is reported as 0.8 mm^2; in series [2] (100 mg/kg, rats), 1.3 mm^2. Further, the inhibition in vivo at 100 mg/kg in series [1] came out at 98.1%; in series [2], 85.6%.

For the molecule `CNC(=O)c1sc(-c2ccc(OC)c(OC)c2)nc1C` [Compound 4, 2-(3,4-dimethoxyphenyl)-4-methylthiazole-5-methylcarboxamide], the Ulcer coefficient in series [1] is recorded as 11.0 mm^2; in series [2] (100 mg/kg, rats) it was 1.8 mm^2. The figures for the inhibition in vivo at 100 mg/kg in series [1] and in series [2] (setting [4]) were 73.8% and 80%, respectively.

On to `CCCNC(=O)c1sc(-c2ccc(OC)c(OC)c2)nc1C` [Compound 5, 2-(3,4-dimethoxyphenyl)-4-methylthiazole-5-n-propylcarboxamide], for which the Ulcer coefficient in series [1] is 8.4 mm^2; in series [2] (100 mg/kg, rats), 2.9 mm^2. Besides, the inhibition in vivo at 100 mg/kg was 80% in series [1] and 67.8% in series [2] (setting [4]).

As for `COc1ccccc1-c1nc(C)c(C(N)=O)s1` [Compound 6, 2-(2-methoxyphenyl)-4-methylthiazole-5-carboxamide], the Ulcer coefficient was 1.2 mm^2 in series [1] and 2.1 mm^2 in series [2] (100 mg/kg, rats). Further, the inhibition in vivo at 100 mg/kg came out at 97.1% in series [1] and 76.7% in series [2] (setting [4]).

Take `CNC(=O)c1sc(-c2ccccc2OC)nc1C` [Compound 7, 2-(2-methoxyphenyl)-4-methylthiazole-5-methylcarboxamide]: the Ulcer coefficient came out at 8.6 mm^2 in series [1] and 1.7 mm^2 in series [2] (100 mg/kg, rats). Further, the inhibition in vivo at 100 mg/kg in series [1] is 79.5%; in series [2] (setting [4]) it was 81.1%.

Take `CCCNC(=O)c1sc(-c2ccccc2OC)nc1C` [Compound 8, 2-(2-methoxyphenyl)-4-methylthiazole-5-n-propylcarboxamide]: the Ulcer coefficient in series [1] is recorded as 9.0 mm^2; in series [2] (100 mg/kg, rats), 3.2 mm^2. Moreover, the inhibition in vivo at 100 mg/kg came out at 78.6% in series [1] and 64.4% in series [2] (setting [4]).

In the case of `COc1ccc(-c2nc(C)c(C(N)=O)s2)cc1` [Compound 9, 2-(4-methoxyphenyl)-4-methylthiazole-5-carboxyamide], the Ulcer coefficient in series [1] amounted to 0.9 mm^2; in series [2] (100 mg/kg, rats), 2.0 mm^2. For the same molecule, the inhibition in vivo at 100 mg/kg in series [1] is 97.9%; in series [2] (setting [4]), 77.8%.

For `CNC(=O)c1sc(-c2ccc(OC)cc2)nc1C` [Compound 10, 2-(4-methoxyphenyl)-4-methylthiazole-5-methylcarboxamide], the Ulcer coefficient in series [1] is recorded as 6.4 mm^2; in series [2] (100 mg/kg, rats) it was 3.1 mm^2. Also, the values for the inhibition in vivo at 100 mg/kg in series [1] and in series [2] (setting [4]) were 84.8% and 65.6%, respectively.

`CCCNC(=O)c1sc(-c2ccc(OC)cc2)nc1C` [Compound 11, 2-(4-methoxyphenyl)-4-methylthiazole-5-n-propylcarboxamide]: the Ulcer coefficient is on record as 8.5 mm^2 in series [1] and 2.5 mm^2 in series [2] (100 mg/kg, rats). Besides, the inhibition in vivo at 100 mg/kg in series [1] is 79.8%; in series [2] (setting [4]), 72.2%.

With `CC(C)=CCCC(C)=CCCC(C)=CCCC(=O)OCC=C(C)CCC=C(C)C` [Gefarnate, 3,7dimethyl-2,6-octadienyl 5,9,13trimethyl-4,8,12-tetradecatrienoate, reference compound], the Ulcer coefficient came out at 36.9 mm^2 in series [1] and 7.2 mm^2 in series [2] (100 mg/kg, rats). Further, the inhibition in vivo at 100 mg/kg in series [1] was found to be 12.1%; in series [2] (setting [4]), 20%. For the same molecule, the “Effectiveness / curative effect” value in series [2] (in words, rats) is “only a slight effectiveness is recognized”.

With `CC1(C)[C@@H](OC(=O)CCC(=O)O)CC[C@]2(C)[C@H]3C(=O)C=C4[C@@H]5C[C@@](C)(C(=O)O)CC[C@]5(C)CC[C@@]4(C)[C@]3(C)CC[C@@H]12` [carbenoxolone], the “Accelerating effect on the ulcer-curing” value in the series with peptic ulcer (background statement) is given as “excellent accelerating effect on the ulcer-curing”. Also, in the series on peptic ulcer (in vivo), the Side effects result was “aldosterone-like side effects to cause hypertension and weakening of muscular function”.
